Measured values from patent publication US20110098325A1, “PYRIDINE BENZAMIDES AND PYRAZINE BENZAMIDES USED AS PKD INHIBITORS” (CANCER RESEARCH TECHNOLOGY LIMITED, priority 2006, published 2011).

target: T1, Murine PKD1 kinase domain (Mus musculus, UniProt Q62101); experiment: PKD1 (Murine Kinase Domain) Enzyme Activity Assay (IMAP fluorescence polarisation); assay type: biochemical; details: 10 μM ATP, 60 minutes, room temperature
T1 construct: hexahistidine (pFastBac HTb leader) (N); made in house; host or cells: Sf9 insect cells, baculovirus (Bac-to-Bac HT, pFastBac HTb)
T1 sequence (Q62101 with tags, fused parts or gaps R683W): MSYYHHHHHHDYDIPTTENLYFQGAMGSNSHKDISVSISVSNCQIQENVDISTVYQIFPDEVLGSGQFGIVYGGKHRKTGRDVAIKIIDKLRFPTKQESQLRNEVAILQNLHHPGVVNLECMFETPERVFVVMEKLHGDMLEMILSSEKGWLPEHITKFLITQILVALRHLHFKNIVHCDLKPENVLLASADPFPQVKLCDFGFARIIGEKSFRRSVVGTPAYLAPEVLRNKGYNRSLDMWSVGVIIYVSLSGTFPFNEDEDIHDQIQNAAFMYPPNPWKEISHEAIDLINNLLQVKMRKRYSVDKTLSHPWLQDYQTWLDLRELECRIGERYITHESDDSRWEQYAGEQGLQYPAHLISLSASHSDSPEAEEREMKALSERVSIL

SMILES | IC50
COc1cc(-c2cc(-c3cccc(C(=O)NCCCN(C)C)c3)cnc2N)ccc1O [Y-060, 3-[6-Amino-5-(4-hydroxy-3-methoxy-phenyl)-pyridin-3-yl]-N-(3-dimethylamino-propyl)-benzamide] | < 1000 nM
CN(C)CCNC(=O)c1cccc(-c2cnc(N)c(-c3cccc(S(C)(=O)=O)c3)c2)c1 [Y-072, 3-[6-Amino-5-(3-methanesulfonyl-phenyl)-pyridin-3-yl]-N-(2-dimethylamino-ethyl)-benzamide] | 1000 to 10000 nM
Cc1ccc(-c2cc(-c3cccc(C(=O)NCCN(C)C)c3)cnc2N)cc1C [Y-036, 3-[6-Amino-5-(3,4-dimethyl-phenyl)-pyridin-3-yl]-N-(2-dimethylamino-ethyl)-benzamide] | < 1000 nM
CN(C)CCNC(=O)c1cccc(-c2cnc(N)c(-c3ccc(Oc4ccccc4)cc3)c2)c1 [Y-067, 3-[6-Amino-5-(4-phenoxy-phenyl)-pyridin-3-yl]-N-(2-dimethylamino-ethyl)-benzamide] | < 1000 nM
COc1cc(-c2cc(-c3cccc(C(N)=O)c3)cnc2N)ccc1F [Y-055, 3-[6-Amino-5-(4-fluoro-3-methoxy-phenyl)-pyridin-3-yl]-benzamide] | < 1000 nM
COC(=O)c1ccc(-c2cc(-c3cccc(C(=O)NCCN(C)C)c3)cnc2N)cc1OC [Y-066, 4-{2-Amino-5-[3-(2-dimethylamino-ethylcarbamoyl)-phenyl]-pyridin-3-yl}-2-methoxy-benzoic acid methyl ester] | < 1000 nM
CN(C)CCNC(=O)c1cccc(-c2cnc(N)c(-c3cccc4ncccc34)c2)c1 [Y-022, 3-(6-Amino-5-quinolin-5-yl-pyridin-3-yl)-N-(2-dimethylamino-ethyl)-benzamide] | < 1000 nM
CN(C)CCNC(=O)c1cccc(-c2cnc(N)c(-c3cccc(OCc4ccccc4)c3)c2)c1 [Y-038, 3-[6-Amino-5-(3-benzyloxy-phenyl)-pyridin-3-yl]-N-(2-dimethylamino-ethyl)-benzamide] | < 1000 nM
COc1ccc(-c2cc(-c3cccc(C(=O)NCCN(C)C)c3)cnc2N)cc1F [Y-043, 3-[6-Amino-5-(3-fluoro-4-methoxy-phenyl)-pyridin-3-yl]-N-(2-dimethylamino-ethyl)-benzamide] | < 1000 nM
